Data on 6 molecules can be found in ChEMBL document CHEMBL1132727, “A novel pyridazinone derivative as a nonprostanoid PGI2 agonist” (Bioorg Med Chem Lett, 2000).

Series [1] is filed under the species Homo sapiens. Kind of series: Tested for Concentration required for the inhibition of ADP-induced aggregation of human platelets. Format: functional.
Series [2] in a line: Half-life after intravenous administration in male rat. Format: ADME, organism-based. The conditions noted are these: in vivo.
The target in series [3] is Prostacyclin receptor (Homo sapiens, UniProt P43119). Kind of series: Tested for inhibition of 3[H]-iloprost binding to human IP receptor.
The nature of series [4]: Half-life after intravenous administration in female rat. Format: ADME, organism-based. The note with it: in vivo.
The nature of series [5]: Half-life after administration of 3.2 mg/kg intravenously in male rat. Format: ADME, organism-based. On the set-up: dose 3.2 mg/kg, route intravenous. The note with it: in vivo, iv.
Series [6] can be described thus: Oral Bioavailability after administration of 10 mg/kg in male rat. The note with it: in vivo, read-out: Bioavailabiility. Format: ADME, organism-based.

Chain of Prostacyclin receptor (P43119 whole entry): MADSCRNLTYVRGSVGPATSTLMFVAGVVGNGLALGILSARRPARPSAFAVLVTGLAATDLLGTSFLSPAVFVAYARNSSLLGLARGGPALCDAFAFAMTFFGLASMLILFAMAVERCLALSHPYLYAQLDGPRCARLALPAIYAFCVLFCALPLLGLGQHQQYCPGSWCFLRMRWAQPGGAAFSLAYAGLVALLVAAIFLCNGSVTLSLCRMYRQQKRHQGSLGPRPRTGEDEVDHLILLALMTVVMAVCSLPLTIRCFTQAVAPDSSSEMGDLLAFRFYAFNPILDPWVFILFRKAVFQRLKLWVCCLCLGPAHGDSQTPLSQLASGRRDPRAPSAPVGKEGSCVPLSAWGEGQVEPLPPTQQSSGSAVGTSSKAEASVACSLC

Consider `O=C(O)COc1cccc2c1CC[C@H](Cn1cccc(C(c3ccccc3)c3ccccc3)c1=O)C2`, for which, in series [1], the IC50 is above 10000 nM.
In series [1], `CC#CCC(C)[C@H](O)/C=C/[C@H]1[C@H](O)CC2Oc3c(CCCC(=O)[O-])cccc3[C@@H]21.[Na+]` (some centres not stated) had a half-inhibitory concentration (IC50) of 4.3 nM. The half-life in series [2] is 0.43 h; in series [4], 3.3 h. The affinity in series [3] corresponds to a Ki of 80 nM.
With `CCC/C(CC1CCc2c(cccc2OCC(=O)O)C1)=N\OC(c1ccccc1)c1ccccc1` (configuration not stated) [AP-227], in series [1], the IC50 stood at 150 nM.
As to `O=C(O)COc1cccc2c1CC[C@H](Cn1nc(C(c3ccccc3)c3ccccc3)ccc1=O)C2`, in series [5], the half-life is 4.3 h. In addition, the IC50 in series [1] stood at 81 nM. Further, the bioavailability in series [6] came to 56%. The Ki in series [3] is 94 nM.
Regarding `O=C(O)COc1cccc2c1CC[C@H](Cn1cc(C(c3ccccc3)c3ccccc3)ccc1=O)C2`, in series [1], inhibition was half-maximal at 130 nM (IC50).
Still for that read-out and setting: in the case of `O=C(O)COc1cccc2c1CCC(Cn1cc(C(c3ccccc3)c3ccccc3)cn1)=C2` it was 41 nM.

In general, IC50 refers to the concentration that gives 50% inhibition. Higher therefore signals lower potency. For orientation: half-life means the time needed for the level to fall by half in the phase considered. Read a high half-life as slow loss. The Ki is a dissociation constant, usually derived from enzyme kinetics or from competition with a known ligand.
